Results as given in patent US20260028354A1, “TETRAHYDRONAPHTHALENE DERIVATIVES AS ESTROGEN RECEPTOR DEGRADERS” (REGENT OF THE UNIVERSITY OF MICHIGAN, priority 2022, published 2026).
Like-named read-outs stand apart in the source and are kept apart here.

Columns and labels:
CRBN/DDB1 = CRBN/DDB1 (Homo sapiens (Human), UniProt Q96SW2); format: binding; conditions: His tagged CRBN+DDB1, Cy5-labeled Thalidomide probe, one hour; read-out: CRBN HTRF IC50
Description: The binding potency was determined using HTRF assay technology (Perkin Elmer). Compounds were serially diluted in DMSO and […] volume was transferred to white 384-well plate.

ER in MCF-7 cells = ER in MCF-7 cells (Homo sapiens (Human), UniProt P03372); experiment: In-cell Western (ICW) ER degradation assay in MCF-7 cells; format: cell-based; conditions: for DC50: MCF-7, ER degradation, read-out: MCF7 DC50; for MCF7 Dmax: MCF-7, maximal ER degradation
ER in MCF-7 cells, sequence (P03372 whole entry): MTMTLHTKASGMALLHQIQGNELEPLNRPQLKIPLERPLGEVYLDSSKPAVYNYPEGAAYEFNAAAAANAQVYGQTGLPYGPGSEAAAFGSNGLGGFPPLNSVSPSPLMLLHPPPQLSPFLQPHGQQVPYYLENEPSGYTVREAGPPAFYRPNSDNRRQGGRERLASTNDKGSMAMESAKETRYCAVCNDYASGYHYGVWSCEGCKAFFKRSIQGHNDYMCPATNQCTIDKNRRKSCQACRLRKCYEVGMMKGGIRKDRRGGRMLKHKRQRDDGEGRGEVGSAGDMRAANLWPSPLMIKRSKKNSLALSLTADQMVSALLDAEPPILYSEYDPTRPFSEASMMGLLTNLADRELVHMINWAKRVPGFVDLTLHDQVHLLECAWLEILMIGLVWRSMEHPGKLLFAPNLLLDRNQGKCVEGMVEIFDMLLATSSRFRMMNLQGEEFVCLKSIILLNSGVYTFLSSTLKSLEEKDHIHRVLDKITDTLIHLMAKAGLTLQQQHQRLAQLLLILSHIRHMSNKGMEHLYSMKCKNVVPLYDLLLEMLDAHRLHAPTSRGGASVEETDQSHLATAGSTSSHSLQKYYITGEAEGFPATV

ER in T47D cells = ER in T47D cells (Homo sapiens (Human), UniProt P03372); experiment: In-cell Western (ICW) ER degradation assay in T47D cells; format: cell-based; conditions: for DC50: ER degradation
ER in T47D cells, sequence (P03372 whole entry): as above

[1] = maximal ER degradation, 16 hrs treatment
[2] = MCF7, MCF-7, maximal ER degradation, 16 hrs treatment, read-out: MCF7 Dmax
[3] = maximal ER degradation, 16 hrs treatment, read-out: T47D Dmax

CRBN/DDB1, sequence (Q96SW2 whole entry, species assumed): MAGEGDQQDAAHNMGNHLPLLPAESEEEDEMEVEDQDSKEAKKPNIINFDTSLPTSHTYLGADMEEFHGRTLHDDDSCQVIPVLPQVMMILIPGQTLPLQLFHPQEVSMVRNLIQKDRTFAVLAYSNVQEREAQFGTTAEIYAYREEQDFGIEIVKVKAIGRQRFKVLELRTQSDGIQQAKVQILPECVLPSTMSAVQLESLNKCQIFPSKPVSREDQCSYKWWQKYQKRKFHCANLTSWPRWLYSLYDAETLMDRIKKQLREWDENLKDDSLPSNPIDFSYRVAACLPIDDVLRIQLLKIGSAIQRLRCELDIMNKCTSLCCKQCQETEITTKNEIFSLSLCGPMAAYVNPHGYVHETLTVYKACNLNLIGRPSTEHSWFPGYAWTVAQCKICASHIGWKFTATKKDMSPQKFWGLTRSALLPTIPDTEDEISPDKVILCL
CRBN/DDB1, sequence (Q16531 whole entry partner, species assumed): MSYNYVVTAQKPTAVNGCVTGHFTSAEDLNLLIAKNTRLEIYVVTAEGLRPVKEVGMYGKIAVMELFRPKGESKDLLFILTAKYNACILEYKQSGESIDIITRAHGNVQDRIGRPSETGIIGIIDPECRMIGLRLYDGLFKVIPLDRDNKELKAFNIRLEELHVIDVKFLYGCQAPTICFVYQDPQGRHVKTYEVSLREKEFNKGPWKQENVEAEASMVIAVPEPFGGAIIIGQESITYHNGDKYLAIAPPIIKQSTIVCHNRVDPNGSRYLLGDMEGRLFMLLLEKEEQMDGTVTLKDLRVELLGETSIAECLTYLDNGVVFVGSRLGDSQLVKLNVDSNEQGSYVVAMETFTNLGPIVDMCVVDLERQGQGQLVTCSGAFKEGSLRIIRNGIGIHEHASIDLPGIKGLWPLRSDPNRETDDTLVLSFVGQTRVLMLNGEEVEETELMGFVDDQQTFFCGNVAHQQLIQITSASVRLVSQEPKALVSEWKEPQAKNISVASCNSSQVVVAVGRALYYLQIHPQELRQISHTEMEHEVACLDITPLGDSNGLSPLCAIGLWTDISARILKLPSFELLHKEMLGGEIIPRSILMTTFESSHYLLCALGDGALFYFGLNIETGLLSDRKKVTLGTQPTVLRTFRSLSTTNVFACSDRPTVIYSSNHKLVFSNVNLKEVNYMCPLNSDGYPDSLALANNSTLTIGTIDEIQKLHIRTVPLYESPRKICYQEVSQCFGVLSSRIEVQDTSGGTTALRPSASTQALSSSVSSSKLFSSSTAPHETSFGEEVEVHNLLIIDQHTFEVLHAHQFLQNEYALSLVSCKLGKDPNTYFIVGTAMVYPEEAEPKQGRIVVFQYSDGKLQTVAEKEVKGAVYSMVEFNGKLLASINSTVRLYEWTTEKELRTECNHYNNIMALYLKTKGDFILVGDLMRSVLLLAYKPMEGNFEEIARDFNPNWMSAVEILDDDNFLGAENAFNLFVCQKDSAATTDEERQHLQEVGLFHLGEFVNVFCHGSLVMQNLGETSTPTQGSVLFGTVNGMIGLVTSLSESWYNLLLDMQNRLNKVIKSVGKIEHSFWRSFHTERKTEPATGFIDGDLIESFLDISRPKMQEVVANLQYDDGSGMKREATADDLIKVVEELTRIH

Structure (SMILES) | IC50 (CRBN/DDB1) | Dmax (ER in MCF-7 cells; MCF7, read-out: MCF7 Dmax, MCF-7, maximal ER degradation, 16 hrs treatment) | DC50 (ER in MCF-7 cells; 16 hrs treatment) | DC50 (ER in T47D cells; 16 hrs treatment) | Dmax (ER in T47D cells; read-out: T47D Dmax, T47D, maximal ER degradation, 16 hrs treatment) | MCF7 Dmax (ER in MCF-7 cells; 16 hrs treatment) | T47D Dmax (ER in T47D cells; [1]) | Dmax (ER in MCF-7 cells; [2]) | Dmax (ER in T47D cells; [3])
COc1cc(N2CCC(CN3CC[C@@]4(c5ccc(N[C@@H]6CCC(=O)NC6=O)cc5)C(C3)C4(F)F)CC2)ccc1[C@@H]1c2ccc(O)cc2CC[C@@H]1c1ccccc1 (mixture of isomers) [Compound A88, (3R)-3-((4-((1R)-7,7-difluoro-3-((1-(4-((1SR,2SR)-6-hydroxy-2-phenyl-1,2,3,4-tetra-hydronaphthalen-1-yl)-3-meth-oxyphenyl)piperidin-4-yl)meth-yl)-3-azabicyclo[4.1.0]heptan-6-yl)phenyl)amino)piperidine-2,6-dione] | > 5000 nM | 50 to 75% | 1 to 10 nM | < 1 nM | 25 to 50% | – | – | – | –
O=C1CC[C@H](N2Cc3c(ccc4c3OC[C@H]3CN(CC5COC6(C5)CN(c5ccc([C@@H]7c8ccc(O)cc8CC[C@@H]7c7ccccc7)cc5)C6)CCN43)C2=O)C(=O)N1 (single isomer, unassigned) [Compound A7] | 500 to 5000 nM | – | < 1 nM | < 1 nM | – | B (“B”: >50 and <75%) | B (“B”: >50 and <75%) | – | –
COc1cc(N2CCC3(CC2)CC(CN2CCN4c5ccc6c(c5OC[C@H]4C2)CN([C@H]2CCC(=O)NC2=O)C6=O)C3)ccc1[C@@H]1c2ccc(O)cc2CC[C@@H]1c1ccccc1 (single isomer, unassigned) [Compound A10] | < 50 nM | – | < 1 nM | < 1 nM | – | – | – | > 75% | > 75%
O=C1CC[C@H](NC(=O)c2ccc3c(n2)OC[C@H]2CN(C[C@H]4COC5(CCN(c6ccc([C@@H]7c8ccc(O)cc8CC[C@@H]7c7ccccc7)cc6)CC5)C4)CCN32)C(=O)N1 (single isomer, unassigned) [Compound A13] | 500 to 5000 nM | – | 1 to 10 nM | 1 to 10 nM | – | – | – | 50 to 75% | 50 to 75%
O=C1CC[C@H](NC(=O)c2ccc3c(n2)OC[C@H]2CN(C[C@@H]4COC5(CCN(c6ccc([C@@H]7c8ccc(O)cc8CC[C@@H]7c7ccccc7)cc6)CC5)C4)CCN32)C(=O)N1 (single isomer, unassigned) [Compound A14] | 500 to 5000 nM | – | < 1 nM | < 1 nM | – | – | – | 50 to 75% | 50 to 75%
O=C1CC[C@H](NC(=O)c2ccc3c(n2)OC[C@H]2CN(C[C@H]4COC5(CCN(c6ccc([C@H]7c8ccc(O)cc8CC[C@H]7c7ccccc7)cc6)CC5)C4)CCN32)C(=O)N1 (single isomer, unassigned) [Compound A15] | 500 to 5000 nM | – | 10 to 100 nM | 10 to 100 nM | – | – | – | 25 to 50% | 25 to 50%
O=C1CC[C@H](NC(=O)c2ccc3c(n2)OC[C@H]2CN(C[C@@H]4COC5(CCN(c6ccc([C@H]7c8ccc(O)cc8CC[C@H]7c7ccccc7)cc6)CC5)C4)CCN32)C(=O)N1 (single isomer, unassigned) [Compound A16] | 500 to 5000 nM | – | 1 to 10 nM | < 1 nM | – | – | – | 50 to 75% | 50 to 75%
O=C1CC[C@H](N2Cc3cc4c(cc3C2=O)OC[C@H]2CN(C[C@H]3COC5(CCN(c6ccc([C@@H]7c8ccc(O)cc8CC[C@@H]7c7ccccc7)cc6)CC5)C3)CCN42)C(=O)N1 (single isomer, unassigned) [Compound A17] | 500 to 5000 nM | – | 1 to 10 nM | 1 to 10 nM | – | – | – | 25 to 50% | 25 to 50%
O=C1CC[C@H](N2Cc3cc4c(cc3C2=O)OC[C@H]2CN(C[C@H]3COC5(CCN(c6ccc([C@H]7c8ccc(O)cc8CC[C@H]7c7ccccc7)cc6)CC5)C3)CCN42)C(=O)N1 (single isomer, unassigned) [Compound A19] | 50 to 500 nM | – | 1 to 10 nM | 1 to 10 nM | – | – | – | 50 to 75% | 50 to 75%
O=C1CC[C@H](Nc2ccc(C3CCN(C[C@H]4COC5(CCN(c6ccc([C@@H]7c8ccc(O)cc8CC[C@@H]7c7ccccc7)cc6)CC5)C4)CC3)cc2)C(=O)N1 (single isomer, unassigned) [Compound A27] | 50 to 500 nM | – | 10 to 100 nM | > 100 nM | – | – | – | 25 to 50% | < 25%
O=C1CC[C@H](Nc2ccc(C3CCN(C[C@@H]4COC5(CCN(c6ccc([C@@H]7c8ccc(O)cc8CC[C@@H]7c7ccccc7)cc6)CC5)C4)CC3)cc2)C(=O)N1 (single isomer, unassigned) [Compound A28] | 50 to 500 nM | – | 10 to 100 nM | 10 to 100 nM | – | – | – | 25 to 50% | 25 to 50%
O=C1CC[C@@H](Nc2ccc(C3CCN(C[C@@H]4COC5(CCN(c6ccc([C@@H]7c8ccc(O)cc8CC[C@@H]7c7ccccc7)cc6)CC5)C4)CC3)cc2)C(=O)N1 (single isomer, unassigned) [Compound A29] | 50 to 500 nM | – | 10 to 100 nM | 10 to 100 nM | – | – | – | 25 to 50% | 25 to 50%
O=C1CC[C@H](N2Cc3c(ccc4c3OC[C@H]3CN(CC5COC6(C5)CN(c5ccc([C@@H]7c8ccc(O)cc8CC[C@@H]7c7ccccc7)cc5)C6)CCN43)C2=O)C(=O)N1 (single isomer, unassigned) [Compound A40] | < 50 nM | – | 10 to 100 nM | 10 to 100 nM | – | C (“C”: 25-50%) | C (“C”: 25-50%) | – | –
COc1cc(N2CC3(CC(CN4CCN5c6ccc7c(c6OC[C@H]5C4)CN([C@H]4CCC(=O)NC4=O)C7=O)CO3)C2)ccc1[C@H]1c2ccc(O)cc2CC[C@H]1c1ccccc1 (single isomer, unassigned) [Compound A47] | 50 to 500 nM | – | 10 to 100 nM | 1 to 10 nM | – | – | – | 50 to 75% | 25 to 50%
COc1cc(N2CC3(CC(CN4CCN5c6ccc7c(c6OC[C@H]5C4)CN([C@H]4CCC(=O)NC4=O)C7=O)CO3)C2)ccc1[C@@H]1c2ccc(O)cc2CC[C@@H]1c1ccccc1 (single isomer, unassigned) [Compound A48] | 50 to 500 nM | – | 1 to 10 nM | 1 to 10 nM | – | – | – | 50 to 75% | 50 to 75%
O=C1CC[C@H](Nc2ccc(C3CCN(C[C@H]4COC5(CCN(c6ccc([C@H]7c8ccc(O)cc8CC[C@H]7c7ccccc7)cc6)CC5)C4)CC3)cc2)C(=O)N1 (single isomer, unassigned) [Compound A49] | 50 to 500 nM | – | < 1 nM | < 1 nM | – | – | – | 50 to 75% | 50 to 75%
O=C1CC[C@H](Nc2ccc(C3CCN(C[C@@H]4COC5(CCN(c6ccc([C@H]7c8ccc(O)cc8CC[C@H]7c7ccccc7)cc6)CC5)C4)CC3)cc2)C(=O)N1 (single isomer, unassigned) [Compound A50] | 50 to 500 nM | – | < 1 nM | < 1 nM | – | – | – | 50 to 75% | 50 to 75%
O=C1CC[C@@H](Nc2ccc(C3CCN(C[C@H]4COC5(CCN(c6ccc([C@@H]7c8ccc(O)cc8CC[C@@H]7c7ccccc7)cc6)CC5)C4)CC3)cc2)C(=O)N1 (single isomer, unassigned) [Compound A51] | 50 to 500 nM | – | > 100 nM | > 100 nM | – | – | – | < 25% | < 25%
O=C1CC[C@H](Nc2ccc(C3CCN(C[C@@H]4COC5(CCN(c6ccc([C@H]7c8ccc(O)cc8CC[C@H]7c7ccccc7)cc6)CC5)C4)CC3)c(F)c2)C(=O)N1 (single isomer, unassigned) [Compound A59] | 50 to 500 nM | – | < 1 nM | > 100 nM | – | – | – | < 25% | < 25%
COc1cc(C2c3ccc(O)cc3CCC2c2ccccc2)c(F)cc1N1CCC(CN2CCN3c4ccc5c(c4OC[C@H]3C2)CN([C@H]2CCC(=O)NC2=O)C5=O)CC1 (stereo in doubt) [Compound A97, (S)-3-((R)-7-((1-(5-fluoro-4-((1R,2R)-6-hydroxy-2-phenyl-1,2,3,4-tetrahydronaphthalen-1-yl)-2-methoxyphenyl)piperidin-4-yl)methyl)-1-oxo-1,3,5,5a,6,7,8,9-octahydro-2H-pyrazino[1′,2′: 4,5][1,4]oxazino[2,3-e]isoindol-2-yl)piperidine-2,6-dione] | 50 to 500 nM | – | – | 1 to 10 nM | – | – | A (“A”: >=75%) | – | –
O=C1CC[C@H](N2Cc3c(ccc4c3OC[C@H]3CN(CC5CC6COCC(C5)N6c5ccc([C@@H]6c7ccc(O)cc7CC[C@@H]6c6ccccc6)cc5)CCN43)C2=O)C(=O)N1 (stereo partly drawn) [Compound A83, (3S)-3-((5aR)-7-((9-(4-((1R, 2S)-6-hydroxy-2-phenyl-1,2,3,4-tetrahydronaphthalen-1-yl)phenyl)-3-oxa-9-azabi-cyclo[3.3.1]nonan-7-yl)meth-yl)-1-oxo-1,3,5,5a,6,7,8,9-octa-hydro-2H-pyrazino[1′,2′:4,5] [1,4]oxazino[2,3-e]isoindol-2-yl)piperidine-2,6-dione] | 50 to 500 nM | – | – | < 1 nM | – | – | B (“B”: >50 and <75%) | – | –
O=C1CC[C@H](N2Cc3cc4c(cc3C2=O)OCC42CCN(CC3CC4(CCN(c5ccc([C@H]6c7ccc(O)cc7CC[C@H]6c6ccccc6)cn5)CC4)C3)CC2)C(=O)N1 [Compound A125, (S)-3-(1′-((7-(5-((1R,2R)-6-hydroxy-2-phenyl-1,2,3,4-tetra-hydronaphthalen-1-yl)pyridin-2-yl)-7-azaspiro[3.5]nonan-2-yl)methyl)-7-oxo-5,7-dihydro-2H,6H-spiro[furo[2,3-f]iso-indole-3,4′-piperidin]-6-yl)-piperidine-2,6-dionc] | 50 to 500 nM | – | – | 10 to 100 nM | – | – | B (“B”: >50 and <75%) | – | –
